In data set [1] the target is T1, human IRAK-4 (Homo sapiens, UniProt Q9NWZ3).
T1 construct: purchased Carna Biosciences 09 145
T1 sequence (Q9NWZ3 1-460): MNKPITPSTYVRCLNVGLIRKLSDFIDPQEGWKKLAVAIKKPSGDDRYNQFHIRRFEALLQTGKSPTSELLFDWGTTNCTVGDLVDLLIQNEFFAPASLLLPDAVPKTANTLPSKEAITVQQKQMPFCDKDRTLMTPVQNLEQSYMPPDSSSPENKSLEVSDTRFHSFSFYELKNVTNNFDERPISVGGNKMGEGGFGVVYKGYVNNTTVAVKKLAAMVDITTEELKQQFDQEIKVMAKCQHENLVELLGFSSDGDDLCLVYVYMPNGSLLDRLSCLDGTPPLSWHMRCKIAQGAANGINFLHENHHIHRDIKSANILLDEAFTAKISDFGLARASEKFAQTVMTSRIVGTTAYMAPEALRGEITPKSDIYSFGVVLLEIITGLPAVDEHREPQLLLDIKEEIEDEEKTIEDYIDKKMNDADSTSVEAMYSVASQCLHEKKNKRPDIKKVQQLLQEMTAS
Description: Phosphorylation IC50 determination for human IRAK-4 (ADP-Glo kinase assay). As to conditions: human IRAK-4, RIP140 substrate, Km ATP; read-out: IRAK4 ADPglo biochemical assay IC50. The method, boiled down:
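IRAK-4 phosphorylation of RIP140 at Km ATP in Tris pH 7.5 buffer with Triton X-100, EGTA, MgCl2, DTT and MnCl2, 120 min at room temperature. ADP formed was measured by ADP-Glo luminescence. Ten-point, 5-fold dilutions (highest final 20 μM, automated format; 1% DMSO), normalised to staurosporine (100%) and DMSO (0%) controls.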

Data set [2] has as its system pooled cryopreserved hepatocytes. Nature of the data set: Metabolic stability in hepatocytes (mouse). It is filed as in vitro ADME. Conditions: 1 μM test compound. The method, boiled down: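 Test compound at 1 μM (0.03% DMSO) incubated with 0.5 million viable pooled cryopreserved hepatocytes/mL at 37° C with shaking; sampled 0–180 min. Parent loss measured by LC-MS/MS versus time-zero, and intrinsic clearance derived from percentage-remaining plots, scaled to L/h/kg and corrected for hepatocyte binding.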

Results on one molecule are retold here after patent publication US20220194938A1, “NOVEL COMPOUNDS AND PHARMACEUTICAL COMPOSITIONS THEREOF FOR THE TREATMENT OF INFLAMMATORY DISORDERS” (GALAPAGOS NV, priority 2019, published 2022).

Structures are written as SMILES.

Take `CCNC(=O)c1cc2nc(CCC(C)(C)O)cn2cc1NC(=O)c1cccc(C(F)(F)F)n1` [Compound 49, N-ethyl-2-(3-hydroxy-3-methylbutyl)-6-(6-(trifluoromethyl)picolinamido)imidazo[1,2-a]pyridine-7-carboxamide]: the IC50 in data set [1] was in the range of 0.1 to 5 nM. The “Mouse (Perc. remaining at 90 min)” value in data set [2] came out at 87.15%.
